# Experimental data: patent publication US20260375151A1, “KETOREDUCTASE MUTANT AND USE THEREOF” (SOUTH CHINA UNIVERSITY OF TECHNOLOGY, priority 2023, published 2026)
# Target: T1, Novosphingobium aromaticivorans ketoreductase (NaKRED) mutant Y199A/N149L (parent SEQ ID NO. 2) (Novosphingobium aromaticivorans, UniProt A4XEP2, E216K/G141A/I221V/N149L/Y199A)
# T1 construct: substrate 1a with NADH
# T1 sequence (A4XEP2 1-259 E216K/G141A/I221V/N149L/Y199A): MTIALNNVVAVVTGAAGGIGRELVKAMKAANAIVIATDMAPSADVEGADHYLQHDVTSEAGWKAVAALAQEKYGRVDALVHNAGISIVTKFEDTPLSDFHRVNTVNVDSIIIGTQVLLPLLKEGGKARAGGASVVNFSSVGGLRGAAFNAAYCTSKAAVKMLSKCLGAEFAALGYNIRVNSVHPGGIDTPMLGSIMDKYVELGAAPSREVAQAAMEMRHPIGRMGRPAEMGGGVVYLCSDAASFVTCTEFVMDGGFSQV
# Assay: Enzyme activity assay of purified Y199A/N149L mutant (change in absorbance at 340 nm, NADH)
# Type: biochemical
# Settings: role: substrate; 0.5 mM substrate 1a; 1 mM NADH; 0.5 μM purified enzyme; 100 mM PBS pH 7.2
# Procedure: The collected wet cells were resuspended in a reaction buffer in a ratio of 1 g wet cells to 15 mL of reaction buffer. The cells were lysed by ultrasonication in an ice bath using cycles of turn-on for 1 s and turn-off for 2 s for a total duration of 45 min. The lysate was centrifuged at 12,000 rpm and 4 °C for 15 min, and the supernatant was filtered through a 0.22 μm membrane for subsequent purification. The purification was performed by Ni-NTA affinity chromatography using a 5 mL of pre-packed column. The entire purification system was first equilibrated with an equilibration buffer, and the sample was loaded at a flow rate of 1 mL/min. Unbound impurity proteins were further removed with the equilibration buffer, and gradient elution was performed by using an elution buffer (500 mM NaCl, and 500 mM imidazole). A target protein was eluted at approximately 150 mM imidazole. The target protein was collected, and concentrated and desalted by using an ultrafiltration tube (50 kDa cutoff) to a final volume of 1 mL. A protein solution was aliquoted and stored at −80 °C for further use.
# Therefore, the activity of the mutant was evaluated by monitoring the change in absorbance at 340 nm during the reaction. […] The change in absorbance was monitored over 5 min. […] A sample was prepared by filtration through a 0.22 μm membrane, and the formation of product was detected by HPLC.
smiles,measurement,value
CC(C)C(=O)CC[C@@H](C)[C@H]1CCC2C3C(CC[C@@]21C)[C@@]1(C)CC[C@@H](O)C[C@@H]1C[C@H]3O (stereo partly shown) [1a],TON,438 ± 2.9
